According to patent US20170291905A1, “ARGININE […] INHIBITORS AND USES THEREOF” (Epizyme, Inc., priority 2014, published 2017):
pIC50: −log10 of the molar value. Structures can show the parent of a compound that is named as a salt.

The compounds below were run against T1, full-length human PRMT1 isoform 1 (GST-tagged) (Homo sapiens, UniProt Q99873) (assay: PRMT1 biochemical assay (3H-SAM Flashplate, histone H4 36-50 peptide)). Conditions: 0.5 nM PRMT1, 30 min preincubation, 20 nM peptide.
T1 construct: GST-tagged PRMT1 was eluted with 50 mM Tris, 2 mM glutathione, pH 7.8, dialysed in buffer A and concentrated; made in house; host or cells: High Five insect cells (baculovirus)
T1 sequence (Q99873 with tags, fused parts or gaps): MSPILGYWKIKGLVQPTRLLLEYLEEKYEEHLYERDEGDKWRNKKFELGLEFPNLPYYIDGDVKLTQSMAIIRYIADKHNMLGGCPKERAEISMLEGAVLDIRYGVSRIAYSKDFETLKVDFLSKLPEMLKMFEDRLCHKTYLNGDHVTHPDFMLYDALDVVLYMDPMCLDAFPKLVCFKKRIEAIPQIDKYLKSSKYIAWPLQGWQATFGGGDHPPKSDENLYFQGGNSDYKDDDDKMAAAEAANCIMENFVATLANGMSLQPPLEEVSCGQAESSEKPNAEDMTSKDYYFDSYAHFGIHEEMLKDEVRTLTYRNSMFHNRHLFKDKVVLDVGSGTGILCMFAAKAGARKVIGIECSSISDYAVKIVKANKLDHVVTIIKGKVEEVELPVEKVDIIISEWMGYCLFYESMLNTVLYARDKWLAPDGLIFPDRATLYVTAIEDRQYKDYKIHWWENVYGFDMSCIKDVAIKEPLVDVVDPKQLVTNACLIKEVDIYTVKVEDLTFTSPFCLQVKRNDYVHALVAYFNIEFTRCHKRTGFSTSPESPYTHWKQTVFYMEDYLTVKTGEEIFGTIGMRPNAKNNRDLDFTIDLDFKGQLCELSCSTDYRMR
Description: S-adenosylmethionine (SAM), S-adenosylhomocysteine (SAH), bicine, Tween20, dimethylsulfoxide (DMSO), bovine skin gelatin (BSG), and Tris(2-carboxyethyl)phosphine hydrochloride solution (TCEP) were purchased from Sigma-Aldrich at the highest level of purity possible. ^3H-SAM was purchase from American Radiolabeled Chemicals with a specific activity of 80 Ci/mmol. 384-well streptavidin Flashplates were purchased from PerkinElmer.
Peptide representative of human histone H4 residues 36-50 was synthesized with an N-terminal linker-affinity tag motif and a C-terminal amide cap by 21st Century Biochemicals. The peptide was purified by high-performance liquid chromatography (HPLC) to greater than 95% purity and confirmed by liquid chromatography mass spectrometry (LC-MS). The sequence was Biot-Ahx-[…]-amide (SEQ ID NO.:1).
Full-length human PRMT1 isoform 1 (NM_001536.5) transcript clone was amplified from an HEK 293 cDNA library, incorporating flanking 5′ sequence encoding a FLAG tag ([…]) (SEQ ID NO.:2) fused directly to Met 1 of PRMT1. The amplified gene was subcloned into pFastBacI (Life Technologies) modified to encode an N-terminal GST tag and a TEV cleavage sequence
Recombinant baculovirus were generated according to Bac-to-Bac kit instructions (Life Technologies). Protein over-expression was accomplished by infecting exponentially growing High Five insect cell culture at 1.5×10^6 cell/ml with 1:100 ratio of virus. Infections were carried out at 27° C. for 48 hours, harvested by centrifugation, and stored at −80° C. for purification.
GST-tagged PRMT1 was eluted with 50 mM Tris, 2 mM glutathione, pH 7.8, dialysed in buffer A and concentrated to 1 mg/mL. The purity of recovered protein was 73%. Reference: Wasilko, D. J. and S. E. Lee: “TIPS: titerless infected-cells preservation and scale-up” Bioprocess J., 5 (2006), pp. 29-32.
General Procedure for PRMT1 Enzyme Assays on Peptide Substrates.
The assays were all performed in a buffer consisting of 20 mM Bicine (pH=7.6), 1 mM TCEP, 0.005% BSG, and 0.002% Tween 20, prepared on the day of use. Compounds in 100% DMSO (1 ul) were spotted into a polypropylene 384-well V-bottom plates (Greiner) using a Platemate Plus outfitted with a 384-channel head (Thermo Scientific). DMSO (1 ul) was added to Columns 11, 12, 23, 24, rows A-H for the maximum signal control and 1 ul of SAH, a known product and inhibitor of PRMT1, was added to columns 11, 12, 23, 24, rows I-P for the minimum signal control. A cocktail (40 ul) containing the PRMT1 enzyme was added by Multidrop Combi (Thermo-Fisher). The compounds were allowed to incubate with PRMT1 for 30 min at room temperature, then a cocktail (10 ul) containing SAM and peptide was added to initiate the reaction (final volume=51 ul). The final concentrations of the components were as follows: PRMT1 was 0.5 nM, ^3H-SAM was 200 nM, non-radiolabeled SAM was 1.5 uM, peptide was 20 nM, SAH in the minimum signal control wells was 1 mM, and the DMSO concentration was 2%. The assays were stopped by the addition of non-radiolabeled SAM (10 ul) to a final concentration of 300 uM, which dilutes the ^3H-SAM to a level where its incorporation into the peptide substrate is no longer detectable. 50 ul of the reaction in the 384-well polypropylene plate was then transferred to a 384-well Flashplate and the biotinylated peptides were allowed to bind to the streptavidin surface for at least 1 hour before being washed once with 0.1% Tween20 in a Biotek ELx405 plate washer. The plates were then read in a PerkinElmer TopCount plate reader to measure the quantity of ^3H-labeled peptide bound to the Flashplate surface, measured as disintegrations per minute (dpm) or alternatively, referred to as counts per minute (cpm).
Where dpm=disintegrations per minute, cmpd=signal in assay well, and min and max are the respective minimum and maximum signal controls. […]

Question: `CNCCN(C)Cc1c[nH]nc1C1CCC(C)(C)[C@H](OCC(C)C)C1` (stereo partly drawn) [compound 20, ({3-[(3R)-4,4-dimethyl-3-(2-methylpropoxy)cyclohexyl]-1H-pyrazol-4-yl}methyl)(methyl)[2-(methylamino)ethyl]amine] was tested. Which pIC50 did it give?
Answer: 7.96

Question: With `CNCCN(C)Cc1c[nH]nc1C1CC(COCC2CC2)CC(COCC2CC2)C1` (stereo not drawn) [compound 2] as the compound, how does the pIC50 read?
Answer: 7.16

Question: With `Cc1[nH]nc([C@H]2CC[C@@]3(CC2)CC(C)(C)CO3)c1CN(C)CCN` [compound 51, N1-((3-((5s,8s)-3,3-dimethyl-1-oxaspiro[4.5]decan-8-yl)-5-methyl-1H-pyrazol-4-yl)methyl)-N1-methylethane-1,2-diamine] as the compound, how does the pIC50 read?
Answer: 7.92

Question: With `CNCCN(C)Cc1c(Cl)ncn1[C@H]1CC[C@]2(CC1)CC(C)(C)CO2` [compound 97] as the compound, how does the pIC50 read?
Answer: 6.50

Question: With `CNCCN(C)Cc1nn[nH]c1[C@H]1CC[C@@]2(CC1)CC(C)(C)CO2` [compound 67] as the compound, how does the pIC50 read?
Answer: 7.94

Question: With `Cc1[nH]nc(C2CCC3(CC2)CC(C)(C)CO3)c1CN(C)CCN` (stereo not drawn) [compound 59] as the compound, how does the pIC50 read?
Answer: 7.94

Question: With `CNCCN(C)Cc1cnnn1[C@H]1CC[C@@]2(CC1)CC(C)(C)CO2` [compound 65] as the compound, how does the pIC50 read?
Answer: < 5.00

Question: With `CNCCN(C)Cc1nn(C)cc1[C@H]1CC[C@]2(CC1)CC(C)(C)CO2` [compound 103] as the compound, how does the pIC50 read?
Answer: 7.43

Question: `CNCCN(C)Cc1nncn1[C@H]1CC[C@@]2(CC1)CC(C)(C)CO2` [compound 68] was tested. Which pIC50 did it give?
Answer: 5.36

Question: `CNCCNCc1c[nH]nc1[C@H]1CC[C@]2(CC1)CC(C)(C)CO2` [compound 29, N1-((3-((5r,8r)-3,3-dimethyl-1-oxaspiro[4.5]decan-8-yl)-1H-pyrazol-4-yl)methyl)-N2-methylethane-1,2-diamine] was tested. Which pIC50 did it give?
Answer: 6.71

Question: `Cc1[nH]nc([C@H]2CC[C@]3(CC2)CC(C)(C)CO3)c1CN(C)CCN` [compound 52, N1-((3-((5r,8r)-3,3-dimethyl-1-oxaspiro[4.5]decan-8-yl)-5-methyl-1H-pyrazol-4-yl)methyl)-N1-methylethane-1,2-diamine] was tested. Which pIC50 did it give?
Answer: 7.80

Question: With `CNCCN(C)Cc1nc(C)sc1[C@H]1CC[C@@]2(CC1)CC(C)(C)CO2` [compound 77] as the compound, how does the pIC50 read?
Answer: 7.64

Question: `CC[C@]12CC[C@](CC)(C[C@@H](c3n[nH]cc3CN(C)CCNC)C1)O2` [compound 38, N1-((3-((1R,3s,5S)-1,5-diethyl-8-oxabicyclo[3.2.1]octan-3-yl)-1H-pyrazol-4-yl)methyl)-N1,N2-dimethylethane-1,2-diamine] was tested. Which pIC50 did it give?
Answer: 6.95

Question: With `CCC1(CC)C[C@]2(CC[C@H](c3n[nH]cc3CN(C)CCNC)CC2)OC1=O` [compound 33, (5s,8s)-3,3-diethyl-8-(4-((methyl(2-(methylamino)ethyl)amino)methyl)-1H-pyrazol-3-yl)-1-oxaspiro[4.5]decan-2-one] as the compound, how does the pIC50 read?
Answer: 7.88

Question: How did the pIC50 turn out when `CNCCN(C)Cc1n[nH]cc1[C@H]1CC[C@@]2(CC1)CC(C)(C)CO2` [compound 115] was run?
Answer: 7.94

Question: `CCC1CC(c2n[nH]cc2CN(C)CCNC)CC(C(=O)NCCOC)C1(C)C` (stereo not drawn) [compound 21, 3-ethyl-N-(2-methoxyethyl)-2,2-dimethyl-5-[4-([methyl[2-(methylamino)ethyl]amino]methyl)-1H-pyrazol-3-yl]cyclohexane-1-carboxamide dihydrochloride] was tested. Which pIC50 did it give?
Answer: 6.61

Question: With `CCOCC1(COCC)CCC(c2n[nH]cc2CN(C)CCN(C)C)CC1` [compound 121] as the compound, how does the pIC50 read?
Answer: 7.42

Question: How did the pIC50 turn out when `CC[C@]12CC[C@](CC)(C[C@H](c3n[nH]cc3CN(C)CCNC)C1)O2` [compound 37, N1-((3-((1R,3r,5S)-1,5-diethyl-8-oxabicyclo[3.2.1]octan-3-yl)-1H-pyrazol-4-yl)methyl)-N1,N2-dimethylethane-1,2-diamine] was run?
Answer: 7.60

Question: How did the pIC50 turn out when `CNCCN(C)Cc1ccnn1[C@H]1CC[C@]2(CC1)CC(C)(C)CO2` [compound 50, N1-((1-((5r,8r)-3,3-dimethyl-1-oxaspiro[4.5]decan-8-yl)-1H-pyrazol-5-yl)methyl)-N1,N2-dimethylethane-1,2-diamine] was run?
Answer: 7.68

Question: With `CNCCN(C)Cc1nnc(C)n1[C@H]1CC[C@@]2(CC1)CC(C)(C)CO2` [compound 71] as the compound, how does the pIC50 read?
Answer: 5.29

Question: With `CNCCN(C)Cc1cncn1[C@H]1CC[C@@]2(CC1)CC(C)(C)CO2` [compound 76] as the compound, how does the pIC50 read?
Answer: 7.84

Question: `CNCCN(C)Cc1c[nH]nc1C1CCC2(CCC(OC)CC2)CC1` (stereo not drawn) [compound 9, N1-((3-(9-methoxyspiro[5.5]undecan-3-yl)-1H-pyrazol-4-yl)methyl)-N1,N2-dimethylethane-1,2-diamine] was tested. Which pIC50 did it give?
Answer: 8.06

Question: `CNCCN(C)Cc1nocc1[C@H]1CC[C@@]2(CC1)CC(C)(C)CO2` [compound 117] was tested. Which pIC50 did it give?
Answer: 7.29

Question: With `CN(CCN)Cc1nn(C)cc1[C@H]1CC[C@]2(CC1)CC(C)(C)CO2` [compound 102] as the compound, how does the pIC50 read?
Answer: 7.67

Question: How did the pIC50 turn out when `CNCCN(C)Cc1c(C)[nH]nc1[C@H]1CC[C@]2(CC1)CC(C)(C)CO2` [compound 58] was run?
Answer: 7.41

Question: `CNCCN(C)Cc1nn[nH]c1[C@H]1CC[C@]2(CC1)CC(C)(C)CO2` [compound 89] was tested. Which pIC50 did it give?
Answer: 7.22

Question: How did the pIC50 turn out when `CNCCN(C)Cc1c[nH]nc1[C@H]1CC[C@]2(CCCOC2)CC1` [compound 4, N1-((3-((6s,9s)-2-oxaspiro[5.5]undecan-9-yl)-1H-pyrazol-4-yl)methyl)-N1,N2-dimethylethane-1,2-diamine] was run?
Answer: 8.03

Question: With `CNCCN(C)Cc1c[nH]nc1C1=CCC(COCC(F)(F)F)CC1` (stereo not drawn) [compound 16, N1,N2-dimethyl-N1-((3-(4-((2,2,2-trifluoroethoxy)methyl)cyclohex-1-en-1-yl)-1H-pyrazol-4-yl)methyl)ethane-1,2-diamine] as the compound, how does the pIC50 read?
Answer: 7.95

Question: How did the pIC50 turn out when `CCOCC1(COCC)CCC(c2nn(C)cc2CN(C)CCN)CC1` [compound 124] was run?
Answer: 7.86

Question: `CCOCC1(COCC)CC=C(c2n[nH]cc2CN(C)CCNC)CC1` [compound 60] was tested. Which pIC50 did it give?
Answer: 7.83

Question: With `CNCCN(C)Cc1cn(C)nc1C1CCC(C)(C)[C@@H](C(=O)NCC(C)C)C1` (stereo partly drawn) [compound 25] as the compound, how does the pIC50 read?
Answer: 6.15

Question: `CCC1(CC)C[C@]2(CC[C@@H](c3n[nH]cc3CN(C)CCNC)CC2)OC1=O` [compound 34, (5r,8r)-3,3-diethyl-8-(4-((methyl(2-(methylamino)ethyl)amino)methyl)-1H-pyrazol-3-yl)-1-oxaspiro[4.5]decan-2-one] was tested. Which pIC50 did it give?
Answer: 7.82

Question: With `CNCCN(C)Cc1c[nH]nc1[C@H]1CC[C@@]2(CCCOC2)CC1` [compound 5, N1-((3-((6r,9r)-2-oxaspiro[5.5]undecan-9-yl)-1H-pyrazol-4-yl)methyl)-N1,N2-dimethylethane-1,2-diamine] as the compound, how does the pIC50 read?
Answer: 7.93

Question: `CNCCN(C)Cc1c[nH]nc1C1CCC(COCC(C)C)(COCC(C)C)CC1` [compound 6] was tested. Which pIC50 did it give?
Answer: 7.78

Question: `CNCCN(C)Cc1c(C)[nH]nc1[C@H]1CC[C@@]2(CC1)CC(C)(C)CO2` [compound 57] was tested. Which pIC50 did it give?
Answer: 7.59

Question: `CNCCN(C)Cc1scnc1[C@H]1CC[C@]2(CC1)CC(C)(C)CO2` [compound 84] was tested. Which pIC50 did it give?
Answer: 7.85

Question: With `CNCCN(C)Cc1c[nH]nc1[C@H]1CC[C@]2(CCCCO2)CC1` [compound 127, methyl([2-[methyl([3-[(6s,9r)-1-oxaspiro[5.5]undecan-9-yl]-1H-pyrazol-4-yl]methyl)amino]ethyl])amine bistrifluoroacetic acid salt] as the compound, how does the pIC50 read?
Answer: 8.13

Question: How did the pIC50 turn out when `CNCCN(C)Cc1c(C)noc1[C@H]1CC[C@@]2(CC1)CC(C)(C)CO2` [compound 113] was run?
Answer: 7.10

Question: `CNCCN(C)Cc1nn(C)nc1C1CCC2(CC1)CC(C)(C)CO2` (stereo not drawn) [compound 86] was tested. Which pIC50 did it give?
Answer: 7.30
